These results are taken from ChEMBL document CHEMBL1201862, “PubChem BioAssay data set” (2004).

Holding throughout (assay): DTP human tumour cell line panel, 48 h
The test system of experiment [1] is COLO 205.
Experiment [2] deals with DU-145.
Experiment [3] relates to EKVX.
The test system of experiment [4] is HCT-116.
In experiment [5] the test system is HL-60.
Experiment [6] relates to K562.
For experiment [7], the system named is MCF7.
The test system of experiment [8] is NCI-H23.
The subject of experiment [9] is NCI-H460.
For experiment [10], the system named is NCI-H522.
Experiment [11] deals with PC-3.
For experiment [12], the system named is RXF 393.
The test system of experiment [13] is SK-MEL-28.
Experiment [14] relates to SK-MEL-2.
Experiment [15] has as its system SK-OV-3.
The subject of experiment [16] is SNB-75.
Experiment [17] has as its system SW-620.
In experiment [18] the test system is TK-10.
For experiment [19], the system named is UACC-62.
The test system of experiment [20] is T47D.

Structures are written as SMILES.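 Where inhibition never reached the appropriate level, the endpoint shown equals the highest concentration tested. Otherwise, values were interpolated linearly from a five-concentration, 48-hour dose response in 96-well plates. Abbreviation: GI50, concentration required for 50% inhibition of growth.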 Active and inactive are the calls of the source. Rule as the data show it: active = GI50 up to about 1.1 µM and inactive = higher.

As usually defined, the GI50 is the concentration that inhibits growth by half. With `Cc1cc(O)c2c(=O)c3ccccc3[nH]c2c1`, the GI50 in [1] is 13.2 µM (inactive); in experiment [2], 35.2 µM (inactive); in experiment [3] it was 41.1 µM (inactive); in experiment [4], 20.3 µM (inactive); in experiment [5], 28.3 µM (inactive); in [6], 9.77 µM (inactive). Further, the 50% growth inhibitory concentration (GI50) in [7] is 0.133 µM (active); in experiment [8], 15 µM (inactive); in experiment [9], 14.9 µM (inactive); in [10] it was 3.56 µM (inactive); in experiment [11] it was 19.3 µM (inactive); in experiment [12], 27 µM (inactive). Besides, the GI50 in [13] is 42.7 µM (inactive); in experiment [14], 81.7 µM (inactive); in experiment [15], 52.8 µM (inactive); in [16], 29.2 µM (inactive); in experiment [17], 41.6 µM (inactive); in experiment [18], 49.2 µM (inactive). The GI50 in [19] was > 10 µM (inactive).
As to `CO/C(=N\N=C\c1ccc(Cl)c(Cl)c1)c1ccncc1`, the GI50 in [1], in experiment [4], in experiment [5], in [6], in [7] and in experiment [8] was > 10 µM (inactive) throughout. For the same compound, the GI50 in experiment [9], in experiment [11], in experiment [12], in experiment [13], in [14] and in [15] was > 10 µM (inactive) each time. In addition, the GI50 is 9.86 µM (inactive) in [16], > 10 µM (inactive) in experiment [17], > 10 µM (inactive) in experiment [20] and > 10 µM (inactive) in [18].
Turning to `CN(CC(=O)O)c1ncc2c(n1)-c1ccccc1OC2`, the GI50 in [1], in experiment [2], in experiment [3], in experiment [4], in experiment [5] and in experiment [6] was > 100 µM (inactive) in each case. In addition, the GI50 in [7], in experiment [8], in [9], in experiment [10], in experiment [11] and in experiment [12] was > 100 µM (inactive) in each case. Besides, the GI50 in experiment [13], in [14], in [16], in [17], in experiment [18] and in experiment [19] was > 100 µM (inactive) in each case.
As for `Cc1cc2[nH]c3c(C#N)c(-c4ccccc4)c(/C=N/c4ccc(Cl)cc4)c(=O)n3c2cc1C`, the GI50 in [1], in experiment [3], in [4], in experiment [7], in [8] and in [9] was > 100 µM (inactive) throughout. The GI50 in experiment [10], in experiment [11], in experiment [12], in [13], in experiment [14] and in experiment [15] was > 100 µM (inactive) throughout. Also, the GI50 in [16], in experiment [17], in experiment [20] and in experiment [18] was > 100 µM (inactive) throughout.
For the compound `Cc1ccc(-n2cnc3c(N/N=C4\SCC(=O)N4c4ccccc4)ncnc32)cc1`, the GI50 in experiment [1] was 4.98 µM (inactive); in experiment [2] it was 4.37 µM (inactive); in experiment [3], 14.8 µM (inactive); in experiment [4], 2.63 µM (inactive); in experiment [5], 1.41 µM (inactive); in [6] it was 1.29 µM (inactive). The GI50 in [8] was 3.37 µM (inactive); in experiment [9], 2.9 µM (inactive); in [10], 3.52 µM (inactive); in experiment [11], 3.3 µM (inactive); in experiment [12], 2.33 µM (inactive); in [13] it was 2.95 µM (inactive). Besides, the GI50 in experiment [14] is 2.31 µM (inactive); in [15], 14.6 µM (inactive); in [17] it was 4.01 µM (inactive); in [20], 3.97 µM (inactive); in [18] it was 3.63 µM (inactive); in [19], 4.37 µM (inactive).
Consider `Cc1ccc(NC(=O)/C(CC2Nc3c(ccc4c3C(=O)c3ccccc3C4=O)NC2O)=N/NC(C)(C)C)cc1` (stereo unspecified), for which the GI50 in experiment [1] is 21.5 µM (inactive); in [2], 7.36 µM (inactive); in experiment [3] it was 10 µM (inactive); in [4] it was 12.5 µM (inactive); in experiment [5], 3.97 µM (inactive); in experiment [7] it was 23.7 µM (inactive). Moreover, the GI50 is 17.7 µM (inactive) in [8]; 9.57 µM (inactive) in experiment [9]; 15.9 µM (inactive) in experiment [10]; 15.8 µM (inactive) in experiment [11]; 11.1 µM (inactive) in experiment [12]; 12.1 µM (inactive) in experiment [13]. In addition, the GI50 is 18.9 µM (inactive) in experiment [14]; 12.8 µM (inactive) in experiment [15]; 25.8 µM (inactive) in [16]; 9.68 µM (inactive) in [17]; 7.66 µM (inactive) in experiment [18]; 11.9 µM (inactive) in experiment [19].
`COc1ccc(CNc2nc(NCc3ccc(OC)cc3)nc(NC3CCCC3)n2)cc1`: the GI50 in experiment [1] was 3.05 µM (inactive); in [2] it was 3.44 µM (inactive); in experiment [3], 19.9 µM (inactive); in experiment [4], 2.64 µM (inactive); in [5], 3.34 µM (inactive); in [6] it was 2.99 µM (inactive). For the same compound, the GI50 was 3.31 µM (inactive) in [7]; 2.99 µM (inactive) in [8]; 3.6 µM (inactive) in experiment [9]; 2.99 µM (inactive) in experiment [10]; 2.84 µM (inactive) in [11]; 0.665 µM (active) in [12]. Further, the GI50 in experiment [13] is 10.9 µM (inactive); in experiment [15] it was 5.28 µM (inactive); in experiment [16] it was 16.4 µM (inactive); in experiment [17] it was 4.14 µM (inactive); in [18] it was 3.26 µM (inactive).
Regarding `[O-][N+]1=[N+]([O-])[C@@H](c2ccccc2)[C@H]1c1ccccc1`, the GI50 in experiment [1] is 19.3 µM (inactive); in experiment [2] it was 16.3 µM (inactive); in experiment [3], 18.3 µM (inactive); in experiment [4], 16.6 µM (inactive); in [5], 2.05 µM (inactive); in experiment [6] it was 3.52 µM (inactive). Also, the GI50 in [7] is 15.7 µM (inactive); in experiment [8], 16.5 µM (inactive); in experiment [9], 22.4 µM (inactive); in [10], 11.5 µM (inactive); in experiment [11], 17.5 µM (inactive); in experiment [12], 14.8 µM (inactive). In addition, the GI50 in experiment [13] is 16.6 µM (inactive); in [14] it was 17.9 µM (inactive); in [15] it was 32.3 µM (inactive); in [16], 21.3 µM (inactive); in [17], 14.5 µM (inactive); in experiment [18], 17 µM (inactive). Further, the GI50 in experiment [19] was 17.5 µM (inactive).
Consider `Cc1ccc(Nc2nc(=O)c3c([nH]c4ccccc43)s2)cc1`, for which the GI50 in [1] was 10.9 µM (inactive); in [2], 18.6 µM (inactive); in experiment [3], 27.8 µM (inactive); in experiment [5], 14.8 µM (inactive); in experiment [6], 6.27 µM (inactive); in [9], 10.1 µM (inactive). Moreover, the GI50 in experiment [10] was 14.6 µM (inactive); in experiment [11], 15.1 µM (inactive); in experiment [13] it was 21.2 µM (inactive); in [14], 14.2 µM (inactive); in experiment [15], 28.1 µM (inactive); in experiment [16] it was 16.1 µM (inactive). In addition, the GI50 in experiment [17] was 10.8 µM (inactive); in experiment [20] it was 15.4 µM (inactive); in [18], 11.3 µM (inactive); in experiment [19], 3.84 µM (inactive).
In the case of `O=[N+]([O-])c1ccc2c(c1)c(S(=O)(=O)O)cc1nonc12`, the GI50 in experiment [1], in experiment [3], in [4], in experiment [5], in experiment [6] and in experiment [7] was > 100 µM (inactive) in each case. The GI50 in experiment [8], in experiment [9], in experiment [10], in [11], in experiment [13] and in experiment [14] was > 100 µM (inactive) in each case. The GI50 in experiment [15], in experiment [17], in experiment [20], in experiment [18] and in experiment [19] was > 100 µM (inactive) in each case.
Turning to `OC[C@@H](O)[C@H]1NC[C@@H](O)[C@H]1O`, the GI50 in experiment [1], in [2], in experiment [3], in experiment [4], in [5] and in experiment [7] was > 100 µM (inactive) in each case. The GI50 in [8], in experiment [9], in [10], in experiment [11], in experiment [12] and in [13] was > 100 µM (inactive) each time. In addition, the GI50 in experiment [15], in experiment [16], in experiment [17], in [18] and in experiment [19] was > 100 µM (inactive) each time.
